Test results taken from US4981856A, “Anti-tumor agents” (Imperial Chemical Industries PLC, priority 1987, dated 1991).

Experiments:
thymidylate synthetase = thymidylate synthetase (Mus musculus, UniProt P07607); test: inhibitory effect on the enzyme thymidylate synthetase in vitro; assay type: biochemical; conditions: in vitro enzyme inhibition; read-out: IC50 against thymidylate synthetase
Source text: (§1) Compounds of this type are believed to act as anti-tumour agents by inhibiting the enzyme thymidylate synthetase. Their anti-tumour activity may be assessed in vitro by determining their inhibitory effect on that enzyme, and in cell cultures by their inhibitory effect on the cell line L1210.
(§2) As also stated above a quinazoline of the invention is believed to act as an anti-tumour agent by inhibiting the enzyme thymidylate synthetase. This anti-tumour activity may be assessed in vitro by determining the inhibitory effect on that enzyme and is cell cultures by the inhibitory effect on the mouse leukaemia cell line L1210 (UK Patent Specification No. 2065653B).

L1210 cell line = test: inhibitory effect on the mouse leukaemia cell line L1210 in cell culture; assay type: cell-based; conditions: read-out: IC50 against the L1210 cell line
Source text: as §1, §2

humans = conditions: particularly in relation to the liver and kidney; cited from earlier work

Chain of thymidylate synthetase (P07607 whole entry): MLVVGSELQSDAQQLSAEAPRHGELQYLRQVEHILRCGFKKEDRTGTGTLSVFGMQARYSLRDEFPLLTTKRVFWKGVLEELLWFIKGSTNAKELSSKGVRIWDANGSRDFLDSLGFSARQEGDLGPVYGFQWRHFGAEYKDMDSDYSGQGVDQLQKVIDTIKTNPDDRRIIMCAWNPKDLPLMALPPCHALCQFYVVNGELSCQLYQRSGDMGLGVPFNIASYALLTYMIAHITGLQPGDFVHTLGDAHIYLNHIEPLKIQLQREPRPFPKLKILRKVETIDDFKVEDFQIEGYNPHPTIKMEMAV

SMILES	IC50 (thymidylate synthetase)	IC50 (L1210 cell line)	symptoms of toxicity in humans (humans)
C#CCN(Cc1cc2c(=O)[nH]c(C)nc2cc1C)c1ccc(C(=O)N[C@@H](CCC(=O)O)C(=O)O)cc1 [N-[p-[N-(3,4-dihydro-2,7-dimethyl-4-oxoquinazolin-6-ylmethyl)-N-(prop-2-ynyl)amino]benzoyl]-L-glutamic acid]	30 nM	180 nM	
C#CCN(Cc1ccc2nc(N)[nH]c(=O)c2c1)c1ccc(C(=O)N[C@@H](CCC(=O)O)C(=O)O)cc1 [CB3717]			shows symptoms of toxicity in humans, particularly in relation to the liver and kidney
